# Measured values as given in patent US9447136B2, “Semisynthetic derivatives of Nystatin A1” (BLIRT S.A., priority 2012, dated 2016).
# Where two headings read alike, the source gives them in different places.
# How the values were obtained:
# [1] = tested on: Aspergillus niger LOCK E201; assay: Antifungal activity in vitro, serial dilution in RPMI 1640; assay type: cell-based; details: Table 2B
# Procedure, shortened: (§1)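 Susceptibility determined by the NCCLS M27-A2 broth dilution method in RPMI 1640, pH 7.0. MIC defined as the lowest compound concentration reducing A531 to at most 20% of the untreated control; IC50 interpolated where A531 reached 50% of control.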
# [2] = tested on: Candida albicans ATCC 10231; assay: as above; assay type: cell-based; details: for Antifungal activity Candida albicans ATCC 10231 IC50 / Antifungal activity Candida albicans ATCC 10231 MIC: Table 2A, RPMI 1640, pH 7.0; for Antifungal activity Candida albicans ATCC 10231 IC50: A531 50% of control; for Antifungal activity Candida albicans ATCC 10231 MIC: A531 at most 20% of control; for MIC Candida albicans ATCC 10231: Table 2B
# Procedure, shortened: as §1
# Candida arborea KKP 319 = assay: as above; assay type: cell-based; details: Table 2B
# Procedure, shortened: as §1
# [3] = tested on: Candida dubliniensis CBS 7987; assay: as above; assay type: cell-based; details: Table 2B
# Procedure, shortened: as §1
# [4] = tested on: Candida glabrata DSM 11226; assay: as above; assay type: cell-based; details: Table 2A; RPMI 1640, pH 7.0
# Procedure, shortened: as §1
# Candida krusei DSM 6128 = assay: as above; assay type: cell-based; details: Table 2A; RPMI 1640, pH 7.0
# Procedure, shortened: as §1
# [5] = tested on: Candida lipolytica KKP 322; assay: as above; assay type: cell-based; details: Table 2B
# Procedure, shortened: as §1
# [6] = tested on: Candida lusitaniae DSM 70102; assay: as above; assay type: cell-based; details: Table 2A; RPMI 1640, pH 7.0
# Procedure, shortened: as §1
# [7] = tested on: Candida parapsilosis DSM 5784; assay: as above; assay type: cell-based; details: Table 2B
# Procedure, shortened: as §1
# [8] = tested on: Candida pseudotropicalis KKP 324; assay: as above; assay type: cell-based; details: Table 2B
# Procedure, shortened: as §1
# [9] = tested on: Candida quilliermondii DSM 11947; assay: as above; assay type: cell-based; details: Table 2B
# Procedure, shortened: as §1
# [10] = tested on: Candida stellatoidea CBS 1905; assay: as above; assay type: cell-based; details: Table 2B
# Procedure, shortened: as §1
# [11] = tested on: Candida tropicalis KKP 334; assay: as above; assay type: cell-based; details: Table 2A; RPMI 1640, pH 7.0
# Procedure, shortened: as §1
# [12] = tested on: Saccharomyces cerevisiae ATCC 9763; assay: as above; assay type: cell-based; details: for Antifungal activity Saccharomyces cerevisiae ATCC 9763 MIC: Table 2A, RPMI 1640, pH 7.0, A531 at most 20% of control; for MIC Saccharomyces cerevisiae ATCC 9763: Table 2B
# Procedure, shortened: as §1
# [13] = tested on: Trichoderma viride LOCK E159; assay: as above; assay type: cell-based; details: Table 2B
# Procedure, shortened: as §1
# Human erythrocytes = assay: Hemotoxicity (hemolytic activity); details: for EH10: concentration causing 10% of hemolysis
# Procedure, shortened: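 Human erythrocytes in saline (2×10^7/ml) were incubated with serially diluted compound at 37 °C for 30 min, then centrifuged. Released hemoglobin was read as A540 against 0.1% Triton X-100 as full hemolysis. EH50 is the interpolated concentration giving 50% of the control A540.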
# Candida albicans 5674 = assay: Antifungal activity towards resistant (MDR) strains; assay type: cell-based; details: C. albicans 5674 overexpressing CDR1 and CDR2
# Procedure, shortened: (§2)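 Optical density at λ=660 nm served as read-out in a broth microdilution test (buffered RPMI 1640, M27-A2 standard procedure). MIC corresponded to the concentration reducing A660 to no more than 20% of the control sample value.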
# Candida albicans B3 = assay: as above; assay type: cell-based; details: fluconazole sensitive, parent strain for B4
# Procedure, shortened: (§3)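 Susceptibility testing used the M27-A2 reference broth dilution method with serial compound dilutions in buffered RPMI 1640. MIC defined at ≤20% of control A660.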
# Candida albicans B4 = assay: as above; assay type: cell-based; details: fluconazole-resistant due to the overexpression of CaMDR1
# Procedure, shortened: as §2
# Candida albicans F2 = assay: as above; assay type: cell-based; details: fluconazole sensitive, parent strain for F5
# Procedure, shortened: as §3
# Candida albicans F5 = assay: as above; assay type: cell-based; details: fluconazole-resistant due to the overexpression of CaMDR1 and ERG11
# Procedure, shortened: as §2
# Candida albicans Gu4 = assay: as above; assay type: cell-based; details: fluconazole sensitive, parent strain for Gu5
# Procedure, shortened: as §3
# Candida albicans Gu5 = assay: as above; assay type: cell-based; details: fluconazole-resistant due to the overexpression of CDR1 and CDR2
# Procedure, shortened: as §3
# Candida albicans STY19 = assay: as above; assay type: cell-based; details: 5674 mutant derivative, deletion of CDR1
# Procedure, shortened: as §2
# Candida albicans STY31 = assay: as above; assay type: cell-based; details: 5674 mutant derivative, deletion of CDR1 and CDR2
# Procedure, shortened: as §2
# Candida albicans STY7 = assay: as above; assay type: cell-based; details: 5674 mutant derivative, deletion of CDR2
# Procedure, shortened: as §2
# CCRF-CEM = assay: Cytotoxic activity against mammalian cells in tissue culture (MTT); assay type: cell-based, human
# Procedure, shortened: (§4)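 Cells at 1.2×10^4/well were exposed to serial 2× DMSO dilutions for 120 h at 37 °C: CCRF-CEM in RPMI 1640 + 10% FBS, HepG2 in MEM + 10% FBS, LLC-PK1 in Medium 199 + 3% FBS. MTT was added for 4 h and A540 read. IC50 is the concentration halving A540 versus DMSO control.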
# HepG2 = assay: as above; assay type: cell-based, human
# Procedure, shortened: as §4
# LLC-PK1 = assay: as above; assay type: cell-based, pig
# Procedure, shortened: as §4
Structure (SMILES),MIC Aspergillus niger LOCK E201 [1] [µg/mL],Antifungal activity Candida albicans ATCC 10231 IC50 [2] [µg/mL],Antifungal activity Candida albicans ATCC 10231 MIC [2] [µg/mL],MIC Candida albicans ATCC 10231 [2] [µg/mL],MIC Candida arborea KKP 319 (Candida arborea KKP 319) [µg/mL],MIC Candida dubliniensis CBS 7987 [3] [µg/mL],Antifungal activity Candida glabrata DSM 11226 MIC [4] [µg/mL],Antifungal activity Candida krusei DSM 6128 MIC (Candida krusei DSM 6128) [µg/mL],MIC Candida lipolytica KKP 322 [5] [µg/mL],MIC Candida parapsilosis DSM 5784 [7] [µg/mL],MIC Candida pseudotropicalis KKP 324 [8] [µg/mL],MIC Candida quilliermondii DSM 11947 [9] [µg/mL],MIC Candida stellatoidea CBS 1905 [10] [µg/mL],Antifungal activity Candida tropicalis KKP 334 MIC [11] [µg/mL],Antifungal activity Saccharomyces cerevisiae ATCC 9763 MIC [12] [µg/mL],MIC Saccharomyces cerevisiae ATCC 9763 [12] [µg/mL],MIC Trichoderma viride LOCK E159 [13] [µg/mL],MIC Candida albicans 5674 (Candida albicans 5674) [µg/mL],MIC Candida albicans B3 (Candida albicans B3) [µg/mL],MIC Candida albicans B4 (Candida albicans B4) [µg/mL],also measured
"C[C@@H]1[C@H](O)[C@@H](C)/C=C/C=C/CC/C=C/C=C/C=C/C=C/C(O[C@H]2O[C@H](C)[C@@H](O)[C@H](N)[C@@H]2O)CC2O[C@](O)(CC(O)C(O)CCC(O)CC(O)CC(O)CC(=O)O[C@H]1C)CC(O)C2C(=O)O (stereo partly shown) [Nystatin, Nystatin A1]",1,0.23,0.5,0.5,1,1,1,1,0.5,1,1,0.5,1,0.5,0.5,0.5,1,1,0.5,1,"Antifungal activity Candida lusitaniae DSM 70102 MIC [6]: 0.25 µg/mL; % of hemolysis at the concentration 60 μg ml^−1 (Human erythrocytes; human erythrocytes, 60 μg ml^−1): 100%; % of hemolysis at the concentration 300 μg ml^−1 (Human erythrocytes; human erythrocytes, 300 μg ml^−1): 100%; EH10 (Human erythrocytes; human erythrocytes): 22.13 µg/mL; MIC Candida albicans F2 (Candida albicans F2): 1 µg/mL; MIC Candida albicans F5 (Candida albicans F5): 1 µg/mL; MIC Candida albicans Gu4 (Candida albicans Gu4): 0.5 µg/mL; MIC Candida albicans Gu5 (Candida albicans Gu5): 1 µg/mL; MIC Candida albicans STY19 (Candida albicans STY19): 1 µg/mL; MIC Candida albicans STY31 (Candida albicans STY31): 1 µg/mL; MIC Candida albicans STY7 (Candida albicans STY7): 1 µg/mL; Cytotoxicity IC50 CCRF-CEM (CCRF-CEM): >100 µg/mL; Cytotoxicity IC50 HepG2 (HepG2): 24.9 ± 2.332 µg/mL; Cytotoxicity IC50 LLC-PK1 (LLC-PK1): >100 µg/mL"
"CC1OC(O[C@H]2/C=C/C=C/C=C/C=C/CC/C=C/C=C/[C@H](C)[C@@H](O)[C@@H](C)[C@H](C)OC(=O)C[C@H](O)C[C@H](O)C[C@H](O)CC[C@@H](O)[C@H](O)CC3(O)C[C@H](O)[C@@H](C(=O)O)[C@H](C2)O3)C(O)C(NC(=S)NCC(C)(C)CN(C)C)C1O (stereo partly shown) [Compound N19, N-{3-[3-(N,N-dimethylamino)-2,2-dimethylpropyl]thioureidyl}nystatin A1]",8,2.90,4,4,4,4,8,8,4,4,4,4,8,4,4,4,8,4,4,4,"Antifungal activity Candida lusitaniae DSM 70102 MIC [6]: 4 µg/mL; EH10 (Human erythrocytes; human erythrocytes): 209.91 µg/mL; MIC Candida albicans F2 (Candida albicans F2): 4 µg/mL; MIC Candida albicans F5 (Candida albicans F5): 4 µg/mL; MIC Candida albicans Gu4 (Candida albicans Gu4): 4 µg/mL; MIC Candida albicans Gu5 (Candida albicans Gu5): 4 µg/mL; MIC Candida albicans STY19 (Candida albicans STY19): 4 µg/mL; MIC Candida albicans STY31 (Candida albicans STY31): 4 µg/mL; MIC Candida albicans STY7 (Candida albicans STY7): 4 µg/mL; Cytotoxicity IC50 CCRF-CEM (CCRF-CEM; CCRF-CEM, 120 h, MTT): >100 µg/mL; Cytotoxicity IC50 HepG2 (HepG2; HepG2, 120 h, MTT): >100 µg/mL; Cytotoxicity IC50 LLC-PK1 (LLC-PK1; LLC-PK1, 120 h, MTT): >100 µg/mL"
"CC1OC(O[C@H]2/C=C/C=C/C=C/C=C/CC/C=C/C=C/[C@H](C)[C@@H](O)[C@@H](C)[C@H](C)OC(=O)C[C@H](O)C[C@H](O)C[C@H](O)CC[C@@H](O)[C@H](O)CC3(O)C[C@H](O)[C@@H](C(=O)O)[C@H](C2)O3)C(O)C(NC(=O)[C@H](N)CC(=O)OC(C)(C)C)C1O (stereo partly drawn) [Compound N41, N-D-(O-tert-butyl)asparagylnystatin A1]",8,4.69,8,8,8,2,8,8,8,8,4,8,4,4,4,4,32,16,8,16,% of hemolysis at the concentration 60 μg ml^−1 (Human erythrocytes): 0.15%; MIC Candida albicans F2 (Candida albicans F2): 16 µg/mL; MIC Candida albicans F5 (Candida albicans F5): 16 µg/mL; MIC Candida albicans Gu4 (Candida albicans Gu4): 8 µg/mL; MIC Candida albicans Gu5 (Candida albicans Gu5): 8 µg/mL; MIC Candida albicans STY19 (Candida albicans STY19): 0.5 µg/mL; MIC Candida albicans STY31 (Candida albicans STY31): 16 µg/mL; MIC Candida albicans STY7 (Candida albicans STY7): 16 µg/mL; Cytotoxicity IC50 CCRF-CEM (CCRF-CEM): >100 µg/mL; Cytotoxicity IC50 HepG2 (HepG2): >100 µg/mL; Cytotoxicity IC50 LLC-PK1 (LLC-PK1): >100 µg/mL
